Patent publication US7285282B2, “Mucin peptide with immunoenhancing properties” (University of Miami, priority 2001, dated 2007)
Where no end group is shown, it is not given here.

How the values were obtained:
DA-3/sec targets = assay: Effect of perforin inhibitor or anti-Fas antibody on killing by DA-3/sec primed splenocytes; type: cell-based, mice; conditions: FIG. 14, FIG. 15
[1] = Toxicity in animals injected with the peptide; conditions: in vivo
YAC-1 = assay: NK cell assay, splenocytes pretreated with IEP, YAC-1 targets; type: cell-based, BALB/c mice; conditions: 10 μg IEP, 30-45 minutes pretreatment, 4-hour assay, FIG. 18
Source text: As mentioned above, there is a unique 11 amino acid peptide present on the C-terminus of the MUC1/sec protein, but not on the MUC1/TM protein. […] We investigated the possible effects of the peptide on the cytotoxicity reaction. We tested it on yet another tumor model, i.e. the D1-DMBA-3 mammary tumor bearing mice. The DA-3 cell line was originally derived from this tumor, which is routinely passaged in vivo in our laboratory in the syngeneic BALB/c mice. […] The ability of this peptide to stimulate immune cells in a NK cell assay was tested. […] Therefore, to test for immunomodulatory activity of the immunoenhancing peptide (IEP), BALB/c splenocytes were pretreated for 30-45 minutes with 10 μg IEP and subsequently, chromium-labeled YAC-1 or EL-4 targets were added in a 4-hour assay as previously described (11).

DA-3/sec tumor targets = assay: Splenocyte cytotoxicity against DA-3/sec targets after in vitro MUC1/sec peptide; type: cell-based; conditions: peptide added in vitro for 5 days to splenocytes of normal and D1-DMBA-3 tumor bearing mice, FIG. 17

| Compound | Effect on killing of DA-3/sec targets by primed splenocytes (DA-3/sec targets) | Toxicity in injected animals [1] | Cytotoxicity of normal splenocytes against YAC-1 (YAC-1) | Cytotoxicity against DA-3/sec tumor targets (DA-3/sec tumor targets) |
| --- | --- | --- | --- | --- |
| C/C=C/[C@H]1O[C@@](O)([C@@H](C)[C@H](O)[C@H](C)[C@H]2OC(=O)/C(OC)=C/C(C)=C/[C@@H](C)[C@@H](O)[C@@H](CC)[C@@H](O)[C@H](C)C/C(C)=C/C=C/[C@@H]2OC)C[C@@H](O[C@H]2C[C@@H](O)[C@H](OC(N)=O)[C@@H](C)O2)[C@@H]1C [Concanamycin A] | effectively blocked killing of DA-3/sec targets in a dose-dependent manner |  |  |  |
| VSIGLSFPMLP [IEP] |  | No toxicity has been detected | elevation of cytotoxic levels | significant levels of cytotoxicity |
